The values below come from PubChem BioAssay AID1996.

One may read the solubility (kinetic) as the concentration staying in solution when a stock, usually in DMSO, is diluted into the medium.

Each structure is given as a SMILES string. In brackets after ≈: the same amount, converted by molar mass.

The conditions of this series: buffer; pH 7.4; 200.0 µM.
`CC1CN(Cc2cnc(Cl)s2)CC(C)O1` (configuration not stated): the kinetic solubility turned out to be 27.9 µg/mL (≈ 113 µM).

On to `CCN(CC(=O)NCc1cccs1)CC(=O)Nc1ccc(C(N)=O)cc1`, for which the kinetic solubility was above 56.2 µg/mL.

On to `COc1ccccc1C(=O)NCCCCNC(=O)c1ccccc1OC`, for which the kinetic solubility is above 53.5 µg/mL.

Compound `Cc1c(C(=O)N2CCN(c3ccccn3)CC2)oc2c(F)cccc12` displayed a solubility (kinetic) of 33.2 µg/mL (≈ 97.8 µM).

In the case of `COc1ccc(CC(=O)N/N=C/c2cccs2)cc1OC`, the solubility (kinetic) was above 45.7 µg/mL.

`OC1(C#CCN2CCCC2)c2ccccc2-c2ccccc21` showed a solubility (kinetic) of 11.4 µg/mL (≈ 39.4 µM).

Take `C#CCOC(=O)C[N+](C)(C)CC#Cc1ccccc1.[Cl-]`: the kinetic solubility was 43.1 µg/mL. Compared with the last compound, the solubility kinetic is about 3.8-fold higher.

In turn, `NS(=O)(=O)c1cccc(NC(=O)c2cccc(N3C(=O)c4ccccc4C3=O)c2)c1` had a solubility (kinetic) of 12.2 µg/mL (≈ 28.9 µM). This solubility kinetic is about 3.5-fold lower than that of the compound before.

In turn, `Cn1c(SCC(=O)Nc2sccc2C#N)nnc1C1CC1` had a solubility (kinetic) above 47.9 µg/mL.

Turning to `Cl.O=C(O)CC1(CC(=O)N2CCN(CCO)CC2)CCCC1`, the kinetic solubility is above 50.2 µg/mL.

In turn, `CCc1ccc(NC(=S)NCc2cccnc2)cc1` gave a solubility (kinetic) of 36.9 µg/mL (≈ 136 µM).

In turn, `Cn1c(N)c(C(=O)COc2ccc(C#N)cc2)c(=O)n(C)c1=O` returned a solubility (kinetic) of 9.4 µg/mL (≈ 29.9 µM).

`NC(=S)/N=C/c1c(O)[nH]c(=O)[nH]c1=O`: the kinetic solubility was determined as 15.6 µg/mL (≈ 72.8 µM).

On to `O=[N+]([O-])c1cc(C(F)(F)F)ccc1NC1CCN(Cc2ccccc2)CC1`, for which the solubility (kinetic) is 2.6 µg/mL (≈ 6.85 µM). This solubility kinetic lies about 6-fold lower than the previous one.

On to `CCN(CC)C(=O)c1cccc(NC(=O)C2CCN(C(=O)c3cccs3)CC2)c1`, for which the solubility (kinetic) is above 62 µg/mL.

Consider `Cc1ccc(C(=O)NCCNC(=O)COc2ccccc2Cl)cn1`, for which the solubility (kinetic) is above 52.2 µg/mL.

For the compound `O=C1C(Cc2c[nH]c3ccccc23)NC(=S)N1C1CCCCC1` (configuration not stated), the solubility (kinetic) is 49 µg/mL (≈ 150 µM).

`Br.Cc1ccc(C2Cc3cc(O)c(O)cc3CN2)cc1` (configuration not stated): the kinetic solubility was 44.3 µg/mL.

The compound `Br.Cc1ccnc(Nc2nc(-c3sc(C)nc3C)cs2)c1` displayed a kinetic solubility of 3.6 µg/mL.

`S=C(Nc1cccc(Cl)c1)N1CCN(c2ccccn2)CC1`: the kinetic solubility turned out to be 0.5 µg/mL (≈ 1.5 µM).

The compound `O=C(NC1CCN(C(=S)Nc2ccc(Cl)cc2)CC1)c1ccco1` displayed a kinetic solubility above 54.6 µg/mL.

`Cc1cc(Cl)ccc1OCC(=O)Nc1ccncc1` returned a solubility (kinetic) above 41.5 µg/mL.

`O=S(=O)(c1ccc(-c2ccccc2)cc1)N1CCCC1` had a kinetic solubility of 3 µg/mL (≈ 10.4 µM).

The compound `Cc1ccc2c(C)c(C(=O)N(C)Cc3nccn3C)oc2c1C` gave a solubility (kinetic) above 46.7 µg/mL.

`Cc1noc(C)c1COC(=O)c1csc2c1CCC(C)C2` (configuration not stated): the kinetic solubility stood at 1.4 µg/mL (≈ 4.58 µM).

As to `CC(=O)c1c(C)[nH]c(C(=O)Nc2ccc(F)c(F)c2F)c1C`, the solubility (kinetic) stood at 1.8 µg/mL (≈ 5.8 µM). This solubility kinetic and that of the compound before are within 1.5-fold of each other.

The compound `CC1CCCCN1C(=O)CSc1nc2ncccc2[nH]1` (configuration not stated) returned a kinetic solubility above 43.6 µg/mL.

For `COc1ccc(C)cc1NC(=O)NCc1ccccc1F`, the kinetic solubility worked out at 2 µg/mL (≈ 6.94 µM).

For `Cn1cccc1C(=O)OCC(=O)c1ccc(Br)s1`, the solubility (kinetic) came to 7.9 µg/mL (≈ 24.1 µM).

The compound `COc1ccc2c(c1)C(=O)Nc1cc(Cl)ccc1N2` displayed a kinetic solubility of 15.6 µg/mL (≈ 56.8 µM).

For `Cc1ccc(C2(c3noc(CN(C)Cc4cccnc4)n3)CCCC2)cc1`, the kinetic solubility stood at 42.1 µg/mL (≈ 116 µM).

`O=C(COC(=O)c1ccc([N+](=O)[O-])o1)Nc1ccc2c(c1)OCO2` returned a kinetic solubility of 16.9 µg/mL (≈ 50.6 µM).

On to `Cc1c(Cl)c([N+](=O)[O-])nn1CC(=O)NCCCN1CCOCC1`, for which the kinetic solubility was above 51.9 µg/mL.

For `CC1=CC(C)C(COC(=O)CN2CCCCC2)C(C)C1` (configuration not stated), the kinetic solubility came out at 8.4 µg/mL (≈ 30.1 µM).

Consider `COCCNC(=O)/C(C#N)=C/c1cccs1`, for which the solubility (kinetic) is above 35.4 µg/mL.

For the compound `CCCCC(=O)Nc1cc(Cl)ccc1C(=O)O`, the kinetic solubility was above 38.4 µg/mL.

As to `N#Cc1cnn2cc(CCN3CCOCC3)c(-c3ccc(F)cc3)nc12`, the solubility (kinetic) is above 52.7 µg/mL.

The compound `Cc1cc(=O)oc2cc(NC(=O)c3cccc(S(C)(=O)=O)c3)ccc12` had a kinetic solubility of 3.5 µg/mL (≈ 9.79 µM).

For `CCOc1ncccc1C(=O)NC(C)CCc1ccccc1` (configuration not stated), the kinetic solubility is 41 µg/mL (≈ 137 µM).

As to `CNC(=O)c1cccc(NC(=O)C(C)c2ccc3cc(OC)ccc3c2)c1` (configuration not stated), the solubility (kinetic) was found to be 9.2 µg/mL (≈ 25.4 µM).

On to `O=C(c1cccnc1)N1c2ccccc2Sc2ccccc21`, for which the solubility (kinetic) came to 43.1 µg/mL (≈ 142 µM). Against the preceding compound, the solubility kinetic is about 4.7-fold higher.

Consider `O=S(=O)(Cc1ccccc1)Nc1ccc(F)cc1`, for which the kinetic solubility was above 39.8 µg/mL.

In the case of `CCOC(=O)N1CCN(CC(=O)Nc2ccc(F)c(F)c2)CC1`, the kinetic solubility is above 49.1 µg/mL.

`O=C(Nc1ccc(Cl)cc1)OC1CN2CCC1CC2` (configuration not stated) yielded a solubility (kinetic) of 40.5 µg/mL (≈ 144 µM).

Take `CC(C)c1nc(C#N)c(NN)o1`: the kinetic solubility is above 24.9 µg/mL.

`CC(C)c1ccc(OCC(=O)NC2CCCC2)cc1` returned a kinetic solubility of 30.2 µg/mL (≈ 116 µM).

Compound `N#CCN1CCN(CC(=O)c2ccc(Br)cc2)CC1` had a kinetic solubility of 47.3 µg/mL (≈ 147 µM).

On to `CCOC(=O)Cc1csc(NC(=O)COC(=O)/C=C/c2ccc(OC)cc2)n1`, for which the solubility (kinetic) is 4.5 µg/mL (≈ 11.1 µM). Compared with the last compound, the solubility kinetic is about 11-fold lower.

On to `CN(CC(=O)N1CCc2ccccc2C1)c1ccccc1`, for which the kinetic solubility is above 42.1 µg/mL.

`Cc1nc2c3cc(Cl)ccc3n(CCN3CCOCC3)c2s1` came in with a solubility (kinetic) of 7.7 µg/mL (≈ 22.9 µM).

`CC(CNC(=O)c1ccc(C#N)cc1)NC(=O)c1ccc(C#N)cc1` (configuration not stated): the solubility (kinetic) was above 49.9 µg/mL.

The compound `CC(Sc1nncn1C)C(=O)Nc1ccc(N2CCCCC2)cc1` (configuration not stated) gave a solubility (kinetic) above 51.8 µg/mL.
